Assay results taken from US20170050957A1, “4-AMINO-6-(HETEROCYCLIC)PICOLINATES AND 6-AMINO-2-(HETEROCYCLIC)PYRIMIDINE-4-CARBOXYLATES AND THEIR USE AS HERBICIDES” (Dow AgroSciences LLC, priority 2013, published 2017).
Like-named read-outs stand apart in the source and are kept apart here.

Key:
[1] = system: Key Broadleaf Weed and Crop Species; experiment: Post-emergent Test II herbicidal activity (Table 15); assay type: in vivo; details: post-emergence, 336 h, 14 d; for pest or weed control at 35 g/ha: 35 g ai/ha; for pest or weed control at 70 g/ha: 70 g ai/ha; for pest or weed control at 140 g/ha: 140 g ai/ha
In short: (§1)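 Visual injury rating (0 = none, 100% = complete kill) made 14 d after treatment, relative to untreated plants. Compounds in an acetone/DMSO/aqueous crop-oil/surfactant spray, at top rate and serial 1/2×-1/16× rates, were applied at 187 L/ha overhead to first-second true leaf plants raised 7-21 d in greenhouse.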

[2] = system: Key Grass and Sedge Weeds as well as Grass Crops; experiment: Post-emergent Test II herbicidal activity (Table 16); assay type: in vivo; details: post-emergence, 336 h, 14 d; for pest or weed control at 35 g/ha: 35 g ai/ha; for pest or weed control at 70 g/ha: 70 g ai/ha; for pest or weed control at 140 g/ha: 140 g ai/ha
In short: as §1

[3] = Abutilon theophrasti, velvetleaf (Abutilon theophrasti), read-out: Visual Growth Reduction (%) 14 Days After Application, ABUTH
[4] = Amaranthus retroflexus, redroot pigweed (Amaranthus retroflexus), read-out: Visual Growth Reduction (%) 14 Days After Application, AMARE
[5] = Brassica napus, oilseed rape, canola (Brassica napus), read-out: Visual Growth Reduction (%) 14 Days After Application, BRSNN
[6] = Chenopodium album, lambsquarters (Chenopodium album), read-out: Visual Growth Reduction (%) 14 Days After Application, CHEAL
[7] = Euphorbia heterophylla, wild poinsettia (Euphorbia heterophylla), read-out: Visual Growth Reduction (%) 14 Days After Application, EPHHL
[8] = Helianthus annuus, sunflower (Helianthus annuus), read-out: Visual Growth Reduction (%) 14 Days After Application, HELAN
[9] = Cyperus esculentus, yellow nutsedge (Cyperus esculentus), read-out: Visual Growth Reduction (%) 14 Days After Application, CYPES
[10] = Echinochloa crus-galli, barnyardgrass (Echinochloa crus-galli), read-out: Visual Growth Reduction (%) 14 Days After Application, ECHCG
[11] = Oryza sativa, rice (Oryza sativa), read-out: Visual Growth Reduction (%) 14 Days After Application, ORYSA
[12] = Setaria faberi, giant foxtail (Setaria faberi), read-out: Visual Growth Reduction (%) 14 Days After Application, SETFA
[13] = Triticum aestivum, wheat, spring (Triticum aestivum), read-out: Visual Growth Reduction (%) 14 Days After Application, TRZAS
[14] = Zea mays, maize, corn (Zea mays), read-out: Visual Growth Reduction (%) 14 Days After Application, ZEAMX

SMILES	pest or weed control at 35 g/ha [1, 3]	pest or weed control at 70 g/ha [1, 3]	pest or weed control at 140 g/ha [1, 3]	pest or weed control at 35 g/ha [1, 4]	pest or weed control at 70 g/ha [1, 4]	pest or weed control at 140 g/ha [1, 4]	pest or weed control at 35 g/ha [1, 5]	pest or weed control at 70 g/ha [1, 5]	pest or weed control at 140 g/ha [1, 5]	pest or weed control at 35 g/ha [1, 6]	pest or weed control at 70 g/ha [1, 6]	pest or weed control at 140 g/ha [1, 6]	pest or weed control at 35 g/ha [1, 7]	pest or weed control at 70 g/ha [1, 7]	pest or weed control at 140 g/ha [1, 7]	pest or weed control at 35 g/ha [1, 8]	pest or weed control at 70 g/ha [1, 8]	pest or weed control at 140 g/ha [1, 8]	pest or weed control at 35 g/ha [2, 9]	pest or weed control at 70 g/ha [2, 9]	other results
Nc1c(F)c(-c2cc3[nH]ccc3cc2F)nc(C(=O)O)c1Cl [Compound 1.14]	0 to 29%	0 to 29%	0 to 29%	75 to 84%	85 to 94%	85 to 94%	45 to 59%	60 to 74%	75 to 84%	60 to 74%	60 to 74%	75 to 84%	0 to 29%	0 to 29%	60 to 74%	60 to 74%	75 to 84%	75 to 84%	0 to 29%	0 to 29%	pest or weed control at 140 g/ha [2, 9]: 0 to 29%; pest or weed control at 35 g/ha [2, 10]: 0 to 29%; pest or weed control at 70 g/ha [2, 10]: 0 to 29%; pest or weed control at 140 g/ha [2, 10]: 0 to 29%; pest or weed control at 35 g/ha [2, 11]: 0 to 29%; pest or weed control at 70 g/ha [2, 11]: 0 to 29%; pest or weed control at 140 g/ha [2, 11]: 0 to 29%; pest or weed control at 35 g/ha [2, 12]: 0 to 29%; pest or weed control at 70 g/ha [2, 12]: 0 to 29%; pest or weed control at 140 g/ha [2, 12]: 0 to 29%; pest or weed control at 35 g/ha [2, 13]: 0 to 29%; pest or weed control at 70 g/ha [2, 13]: 0 to 29%; pest or weed control at 140 g/ha [2, 13]: 0 to 29%; pest or weed control at 35 g/ha [2, 14]: 0 to 29%; pest or weed control at 70 g/ha [2, 14]: 0 to 29%; pest or weed control at 140 g/ha [2, 14]: 0 to 29%
COC(=O)c1nc(-c2ccc3cc[nH]c3c2F)c(F)c(N)c1Cl [Compound 1.15, Methyl 4-amino-3-chloro-5-fluoro-6-(7-fluoro-1H-indol-6-yl)picolinate]	95 to 100%	95 to 100%	95 to 100%	95 to 100%	95 to 100%	95 to 100%	75 to 84%	95 to 100%	95 to 100%	95 to 100%	95 to 100%	95 to 100%	95 to 100%	95 to 100%	95 to 100%	95 to 100%	95 to 100%	95 to 100%	0 to 29%	60 to 74%	pest or weed control at 140 g/ha [2, 9]: 45 to 59%; pest or weed control at 35 g/ha [2, 10]: 75 to 84%; pest or weed control at 70 g/ha [2, 10]: 85 to 94%; pest or weed control at 140 g/ha [2, 10]: 95 to 100%; pest or weed control at 35 g/ha [2, 11]: 0 to 29%; pest or weed control at 70 g/ha [2, 11]: 0 to 29%; pest or weed control at 140 g/ha [2, 11]: 30 to 44%; pest or weed control at 35 g/ha [2, 12]: 60 to 74%; pest or weed control at 70 g/ha [2, 12]: 60 to 74%; pest or weed control at 140 g/ha [2, 12]: 85 to 94%; pest or weed control at 35 g/ha [2, 13]: 45 to 59%; pest or weed control at 70 g/ha [2, 13]: 60 to 74%; pest or weed control at 140 g/ha [2, 13]: 60 to 74%; pest or weed control at 35 g/ha [2, 14]: 0 to 29%; pest or weed control at 70 g/ha [2, 14]: 30 to 44%; pest or weed control at 140 g/ha [2, 14]: 60 to 74%
Nc1c(F)c(-c2ccc3cc[nH]c3c2F)nc(C(=O)O)c1Cl [Compound 1.16, 4-Amino-3-chloro-5-fluoro-6-(7-fluoro-1H-indol-6-yl)picolinic acid]	85 to 94%	95 to 100%	95 to 100%	95 to 100%	95 to 100%	95 to 100%	95 to 100%	95 to 100%	95 to 100%	95 to 100%	95 to 100%	95 to 100%	95 to 100%	95 to 100%	95 to 100%	95 to 100%	95 to 100%	85 to 94%	0 to 29%	60 to 74%	pest or weed control at 140 g/ha [2, 9]: 85 to 94%; pest or weed control at 35 g/ha [2, 10]: 75 to 84%; pest or weed control at 70 g/ha [2, 10]: 85 to 94%; pest or weed control at 140 g/ha [2, 10]: 95 to 100%; pest or weed control at 35 g/ha [2, 11]: 30 to 44%; pest or weed control at 70 g/ha [2, 11]: 60 to 74%; pest or weed control at 140 g/ha [2, 11]: 60 to 74%; pest or weed control at 35 g/ha [2, 12]: 60 to 74%; pest or weed control at 70 g/ha [2, 12]: 75 to 84%; pest or weed control at 140 g/ha [2, 12]: 85 to 94%; pest or weed control at 35 g/ha [2, 13]: 30 to 44%; pest or weed control at 70 g/ha [2, 13]: 60 to 74%; pest or weed control at 140 g/ha [2, 13]: 60 to 74%; pest or weed control at 35 g/ha [2, 14]: 0 to 29%; pest or weed control at 70 g/ha [2, 14]: 30 to 44%; pest or weed control at 140 g/ha [2, 14]: 60 to 74%
